Laboratory results as given in publication PMC5983563, “Defining ICR-Mo, an intrinsic colistin resistance determinant from Moraxella osloensis” (PLoS Genetics, 2018).

Legend:
[1] = biological target: T1, EptA (Neisseria gonorrhoeae, UniProt B4RMY8); assay: TLC of fluorescent lipid; format: biochemical; details: pH 7.5, 25°C, ~24 h, 0.2 mM substrate, 40 μM enzyme, 0.03% DDM
T1 construct: gene NGK_1498; full-length membrane protein, purified in DDM

[2] = biological target: T2, ICR-Mo (AXE82_07515) (Faucicola osloensis, UniProt A0A378QCY4); assay: TLC of fluorescent lipid, LC/MS; format: biochemical; details: pH 7.5, 25°C, ~24 h, 0.2 mM substrate, 40 μM enzyme, 0.03% DDM
T2 construct: gene eptA; full-length synthetic gene in pET21a, membrane protein, Ni-NTA purified in DDM, ~60 kDa
T2 sequence (A0A378QCY4 entry or part of it): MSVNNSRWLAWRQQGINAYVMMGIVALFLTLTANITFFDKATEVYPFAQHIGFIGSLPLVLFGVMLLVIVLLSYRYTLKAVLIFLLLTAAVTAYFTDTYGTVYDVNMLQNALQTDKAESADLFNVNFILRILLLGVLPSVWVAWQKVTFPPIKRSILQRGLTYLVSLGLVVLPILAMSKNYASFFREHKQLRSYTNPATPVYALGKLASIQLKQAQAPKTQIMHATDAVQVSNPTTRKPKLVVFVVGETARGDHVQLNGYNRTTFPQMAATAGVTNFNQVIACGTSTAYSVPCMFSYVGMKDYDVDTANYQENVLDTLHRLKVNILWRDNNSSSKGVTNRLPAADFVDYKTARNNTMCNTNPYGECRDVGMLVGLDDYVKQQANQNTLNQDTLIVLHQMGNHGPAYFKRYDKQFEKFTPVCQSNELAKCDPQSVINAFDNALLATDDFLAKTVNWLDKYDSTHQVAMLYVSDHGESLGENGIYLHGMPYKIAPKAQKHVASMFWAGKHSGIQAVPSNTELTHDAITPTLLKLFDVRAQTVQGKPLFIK

T1 sequence (B4RMY8 entry or part of it): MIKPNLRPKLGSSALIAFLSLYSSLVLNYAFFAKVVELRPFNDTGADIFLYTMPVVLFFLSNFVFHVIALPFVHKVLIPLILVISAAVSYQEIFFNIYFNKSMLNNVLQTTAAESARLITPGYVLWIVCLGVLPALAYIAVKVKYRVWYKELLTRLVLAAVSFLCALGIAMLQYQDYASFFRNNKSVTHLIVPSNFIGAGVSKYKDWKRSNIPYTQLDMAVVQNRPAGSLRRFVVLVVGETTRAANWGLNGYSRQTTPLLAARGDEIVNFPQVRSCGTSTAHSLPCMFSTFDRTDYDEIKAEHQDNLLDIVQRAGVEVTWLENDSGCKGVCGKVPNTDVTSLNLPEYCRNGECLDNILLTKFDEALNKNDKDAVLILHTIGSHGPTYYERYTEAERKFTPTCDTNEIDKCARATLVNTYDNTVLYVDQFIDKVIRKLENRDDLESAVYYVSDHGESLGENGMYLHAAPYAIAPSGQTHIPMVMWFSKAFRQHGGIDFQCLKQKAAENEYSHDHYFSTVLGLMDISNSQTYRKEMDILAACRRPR

## CCCCCCCCCCCCCCCC(=O)OC[C@H](COP(=O)(O)OCCN)OC(=O)CCCCCCCCCCCNc1ccc([N+](=O)[O-])c2nonc12 [NBD-glycerol-3-PEA, 1-acyl-2-{12-[(7-nitro-2-1,3-benzoxadiazol-4-yl)amino]dodecanoyl}-sn-glycero-3-phosphoethanolamine]
[1]
  TLC of fluorescent lipid: Minus denotes no addition of the enzyme of EptA/MCR-1/MCR-2/ICR-Mo
[2]
  TLC of fluorescent lipid, LC/MS: ICR-Mo displays an enzymatic activity of removing the PEA moiety from the lipid substrate
